Read-outs that look alike come from different tables or passages of the source.
Experiments:
[1] = test system: Leptosphaeria nodorum (LEPTNO); experiment: Effect of copper on fungitoxicity of metal-hydrazone complexes towards Leptosphaeria nodorum (Example 33, Table 9); format: cell-based; conditions: CuCl2, 10 μM, no test compound, across experiments
[2] = test system: Septoria tritici isolate USA-184; experiment: In vitro fungitoxicity of hydrazones with and without copper towards Septoria tritici (Example 30, Table 5); format: cell-based; conditions: no test compound
[3] = test system: Phytophthora capsici; experiment: In vitro fungitoxicity of hydrazones with and without copper towards Phytophthora capsici (Example 28, Table 3); format: cell-based; conditions: CuCl2, 50 μM, no test compound, across experiments
[4] = test system: Leptosphaeria nodorum (LEPTNO); experiment: Fungitoxicity of copper-hydrazone mixtures of different ratios towards Leptosphaeria nodorum (Example 35, Table 11); format: cell-based
Procedure: In vitro fungitoxicity assays against LEPTNO were conducted using the copper-minus medium described in Example 26. Mixtures containing hydrazone compound 16 at 200 nM and CuCl2 at 0.2 μM (1:1 molar ratio), 0.8 μM (1:4 ratio), 12.5 μM (1:62.5 ratio) and 200 μM (1:1000 ratio) were prepared in copper-minus medium. Two-fold dilution series of these mixtures were then prepared in 100 μL aliquots of copper-minus medium in flat-bottomed 96-well microtiter plates. A suspension of LEPTNO spores in copper-minus medium at 2×10^5 spores per mL was prepared as in Example 26. Microtiter plates were inoculated with 100 μL of the spore suspension and the plates were incubated at 25° C. for 72 h before assessing fungal growth by measuring light scattering in a NepheloStar plate reader.
(§1) Growth inhibition was determined by comparing growth in the presence of copper-hydrazone mixture with growth in control wells lacking the copper-hydrazone mixture. EC50 values were calculated from dose-response curves, and are expressed as the amounts of hydrazone or copper in each test mixture at the rates providing 50% inhibition of growth as compared to a control lacking the copper-hydrazone mixture.

[5] = test system: Phytophthora infestans; format: in vivo, Phytophthora infestans on tomato; conditions: Late blight, 160 μM
[6] = test system: Phytophthora capsici; experiment: Effect of copper on fungitoxicity of metal-hydrazone complexes towards Phytophthora capsici (Example 34, Table 10); format: cell-based; conditions: CuCl2, 50 μM, no test compound, across experiments
[7] = test system: Plasmopara viticola; design: species or system Plasmopara viticola on grape; conditions: in vivo
[8] = test system: Leptosphaeria nodorum (LEPTNO); experiment: In vitro fungitoxicity of hydrazones with and without copper towards Leptosphaeria nodorum (Example 26); format: cell-based; conditions: CuCl2 10 μM alone, no test compound; copper-plus versus copper-minus medium across experiments
[9] = test system: Ustilago maydis; experiment: In vitro fungitoxicity of hydrazones with and without copper towards Ustilago maydis (Example 29, Table 4); format: cell-based; conditions: CuCl2, 10 μM, no test compound
[10] = test system: Phytophthora capsici; experiment: Fungitoxicity of copper-hydrazone mixtures of different ratios towards Phytophthora capsici (Example 36, Table 12); format: cell-based
Procedure: In vitro fungitoxicity assays against Phytophthora capsici were conducted using the copper-minus AS medium described in Example 28. Mixtures containing hydrazone compound 16 at 200 nM and CuCl2.2H2O at 0.2 μM (1:1 molar ratio), 0.8 μM (1:4 ratio), 3.2 μM (1:16 ratio), 12.5 μM (1:62.5 ratio), 50 μM (1:200 ratio) and 200 μM (1:1000 ratio) were prepared in copper-minus AS medium. Two-fold dilution series of these mixtures were then prepared in 100 μL aliquots of copper-minus AS medium in flat-bottomed 96-well microtiter plates. A suspension of P. capsici zoospores in Chelex-treated water at 5×10^4 spores per mL was prepared as in Example 28. Microtiter plates were inoculated with 100 μL of the spore suspension and incubated at 25° C. for 48 h before assessing fungal growth by measuring light scattering in a NepheloStar plate reader.
as §1

[11] = test system: Phytophthora infestans; format: in vivo, Phytophthora infestans on tomato (Outdoor Girl); conditions: no hydrazone
[12] = CuCl2 without hydrazone, read-out: CuCl2 EC50
[13] = mixture with hydrazone compound 16, Hydrazone:Cu ratio 1 to 1, read-out: CuCl2 EC50 (amount of CuCl2 in mixture at EC50)
[14] = mixture with hydrazone compound 16, Hydrazone:Cu ratio 1 to 4, read-out: CuCl2 EC50 (amount of CuCl2 in mixture at EC50)
[15] = mixture with hydrazone compound 16, Hydrazone:Cu ratio 1 to 62.5, read-out: CuCl2 EC50 (amount of CuCl2 in mixture at EC50)
[16] = mixture with hydrazone compound 16, Hydrazone:Cu ratio 1 to 1000, read-out: CuCl2 EC50 (amount of CuCl2 in mixture at EC50)

O.O.[Cl][Cu][Cl] [CuCl2, CuCl2.2H2O, reference compound]
% Inhn. attributed to copper chloride alone [1]: 3.3% | effect of copper chloride alone on growth ([2]; 1 μM): no effect on growth | % Inhibition attributed to copper chloride alone ([2]; CuCl2, 1 μM): 0% | % Inhn attributed to copper chloride alone [3]: 4.5 ± 7.9% | EC50 [4, 12]: 118000 nM | EC50 [4, 13]: 72 nM | EC50 [4, 14]: 172 nM | EC50 [4, 15]: 1770 nM | EC50 [4, 16]: 14000 nM | % Control Observed [5]: 69% | % Inhn. attributed to copper chloride alone [6]: 4.6% | % Control Observed [7]: 1% | LEPTNO % Inhn. Plus Copper Observed (copper chloride alone) [8]: 7.1 ± 6.0% | % Inhn. attributed to copper chloride alone [9]: 11.9% | EC50 [10, 12]: 720000 nM | EC50 [10, 13]: 71 nM | EC50 [10, 14]: 189 nM | EC50 ([10]; mixture with hydrazone compound 16, Hydrazone:Cu ratio 1 to 16, read-out: CuCl2 EC50 (amount of CuCl2 in mixture at EC50)): 441 nM | EC50 [10, 15]: 1040 nM | EC50 ([10]; mixture with hydrazone compound 16, Hydrazone:Cu ratio 1 to 250, read-out: CuCl2 EC50 (amount of CuCl2 in mixture at EC50)): 1900 nM | EC50 [10, 16]: 4560 nM | % Control of Tomato Late Blight ([11]; CuCl2 10 μM alone): 1.7% | % Control of Tomato Late Blight ([11]; CuCl2 50 μM alone): 8.5% | % Control of Tomato Late Blight ([11]; CuCl2 200 μM alone): 38.2% | % Control of Tomato Late Blight ([11]; CuCl2 400 μM alone): 56.0% | % Control of Tomato Late Blight ([11]; CuCl2 800 μM alone): 70.2%
